# Source: patent US20160280789A1, “METHODS FOR TREATING HEMATOLOGICAL MALIGNANCIES” (CHILDREN'S HOSPITAL LOS ANGELES, priority 2013, published 2016)
# Entries after “also recorded” stand apart in the source; their conditions may differ. Read-outs that look alike come from different tables or passages of the source.
# Experiments:
# [1] = test system: ITGA6fl/fl BCR/ABL1+ pre-B ALL cells; test: In vivo model of BCR-ABL1-transformed ITGA6fl/fl ALL in NOD/SCID mice, survival with Nilotinib; design: species or system mouse
# Method: A, Bioluminescence imaging was performed at indicated days post-ALL cells injection. […] C, D ITGA6 deletion was confirmed by FACS in BM cells of mice sacrificed at time of death of leukemia. E, Residual leukemia cells were determined in spleen and bone marrow by RT-PCR and F, PCR in the groups EmptyER^T2+Nilotinib and CreER^T2+Nilotinib.
# Bone marrow cells from ITGA6fl/fl mice (Georges-Labouesse et al.) mice were harvested and retrovirally transformed by BCR-ABL1 (Pear et al.) in the presence of 10 ng IL7 (Peprotech) in Retronectin-(Takara) coated plates. All BCR-ABL1-transformed ALL cells derived from bone marrow of mice were maintained in Iscove's modified Dulbecco's medium (IMDM) with GlutaMAX containing 20% fetal bovine serum (Atlanta Biologica), 100 IU/ml penicillin, 100 μg/ml streptomycin (Invitrogen), and 50 μM 2-mercaptoethanol (Sigma-Aldrich) at 37° C. in a humidified incubator with 5% CO2. After cytokine-independent proliferation, BCR-ABL1 transformed ITGA6fl/fl cells were transduced retrovirally with EmptyERT2 or CreERT2. […] D-Luciferin (Promega) dissolved in PBS was injected intraperitoneally at a dose of 2.5 mg per mouse 15 minutes before measuring the luminescence signal. […] Mice were monitored for weight loss and other leukemia symptoms. Moribund mice were sacrificed and tissues were analyzed for leukemia cell infiltration to confirm leukemia as the cause of death.
# To determine the effect of VLA6 deletion on leukemia progression in vivo, ITGA6 competent ITGA6fl/fl BCR/ABL1+ pre-B (B220+CD19+) CreERT2+ or control transduced ALL cells were lentivirally luciferase labeled and transferred into NOD/SCID mice (FIG. 6A). […] For this purpose, splenic cells and bone marrow cells of leukemia recipient animals were isolated and analyzed for BCR-ABL1 mRNA expression by RT-PCR (FIG. 6E) and BCR-ABL1 expression in genomic DNA by PCR (FIG. 6F).
# [2] = test system: BCR-ABL-1+ ITGA6fl/fl cells; test: cells; conditions: Mus musculus, 72 h
# Method: Viability of CreER^T2 and EmptyER^T2 ITGA6^f/f BCR-ABL1^+ CreER^T2 and EmptyER^T2 cells were plated onto tissue culture plates (no further ligand coated) and treated with Tamoxifen (1.5 μM) and Nilotinib (0.02 μM or 0.2 μM) for 1 to 3 days. Cell viability was determined by trypan blue exclusion. Y axis indicates cell viability relative to initial.
# Bone marrow cells from ITGA6fl/fl mice (Georges-Labouesse et al.) mice were harvested and retrovirally transformed by BCR-ABL1 (Pear et al.) in the presence of 10 ng IL7 (Peprotech) in Retronectin-(Takara) coated plates. All BCR-ABL1-transformed ALL cells derived from bone marrow of mice were maintained in Iscove's modified Dulbecco's medium (IMDM) with GlutaMAX containing 20% fetal bovine serum (Atlanta Biologica), 100 IU/ml penicillin, 100 μg/ml streptomycin (Invitrogen), and 50 μM 2-mercaptoethanol (Sigma-Aldrich) at 37° C. in a humidified incubator with 5% CO2. After cytokine-independent proliferation, BCR-ABL1 transformed ITGA6fl/fl cells were transduced retrovirally with EmptyERT2 or CreERT2. […] After 1 μg/ml puromycin selection, VLA6 deletion was induced in vitro by addition of 1.0 μM tamoxifen (Sigma-Aldrich). […]
smiles,measurement,setting,value
Cc1cn(-c2cc(NC(=O)c3ccc(C)c(Nc4nccc(-c5cccnc5)n4)c3)cc(C(F)(F)F)c2)cn1 [Nilotinib],"Median survival time (MST), CreERT2 (ITGA6 deleted) leukemia","[1]; n=5, Tamoxifen-induced in vivo deletion",survived; also recorded: undefined
same,"Median survival time (MST), EmptyERT2 (ITGA6 competent) leukemia","[1]; n=6, days post-leukemia injection",39.5 days
same,viability at 0.02 µM,"[2]; read-out: Viability of leukemia cells, CreERT2 (ITGA6 deleted)",10.2%
same,viability at 0.02 µM,"[2]; read-out: Viability of leukemia cells, EmptyERT2 (ITGA6 competent)",83.7%
